These results are taken from US11065257B2, “Substituted pyrazoloazepin-4-ones and their use as phosphodiesterase inhibitors” (LEO Pharma A/S, priority 2016, dated 2021).

T1 sequence (Q08499 380-740): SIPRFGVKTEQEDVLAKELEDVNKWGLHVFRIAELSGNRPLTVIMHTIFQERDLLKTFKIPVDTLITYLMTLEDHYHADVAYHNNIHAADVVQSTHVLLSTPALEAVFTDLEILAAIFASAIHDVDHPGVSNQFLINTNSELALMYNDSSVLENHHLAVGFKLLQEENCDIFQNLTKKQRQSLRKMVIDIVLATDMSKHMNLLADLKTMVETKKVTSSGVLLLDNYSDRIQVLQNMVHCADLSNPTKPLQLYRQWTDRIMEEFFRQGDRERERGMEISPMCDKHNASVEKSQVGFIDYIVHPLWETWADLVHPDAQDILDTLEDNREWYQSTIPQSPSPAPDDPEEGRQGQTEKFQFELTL

The experiment has as its target T1, human PDE4D catalytic domain (Homo sapiens, UniProt Q08499).
T1 construct: UniProt no; Q08499 [S380-L740]
Nature of the experiment: PDE4 Assay. The settings on record: human PDE4D catalytic domain (S380-L740), TR-FRET with FAM-cAMP; expressed as a range of IC50; read-out: PDE4 Potency Range. The experiment is classed as biochemical. Here is the method:
The human PDE4D catalytic domain (UniProt no. Q08499 [S380-L740]) was incubated with a mixture of non-labelled cAMP (cyclic adenosine monophosphate) and fluorescein amidite (FAM) conjugated cAMP and titrated test or reference compound. Following brief incubation the enzymatic reaction was stopped by addition of binding buffer containing nanoparticles with immobilized trivalent metal ions capable of binding 1) AMP phospho groups and 2) terbium (Tb) donor fluorophores. Subsequent excitation of the Tb donor triggers time-resolved FRET to adjacent FAM acceptor molecules resulting in light emission. In the presence of a PDE4 inhibitor, AMP generation was reduced resulting in a lower fluorescence signal. The cAMP phosphodiester is not bound by the detection system.
The results were calculated as the molar concentrations resulting in 50% inhibition of the substrate cleavage compared to controls samples, and are expressed as a range of IC50 (nM).
In the case of `CCc1nn(CCCOC(=O)c2ccns2)c2c1C(=O)NCC1(CCOCC1)C2` [Example 54, 3-(3-ethyl-4-oxo-spiro[6,8-dihydro-5H-pyrazolo[4,3-c]azepine-7,4′-tetrahydropyran]-1-yl)propyl isothiazole-5-carboxylate], the IC50 fell in the range of 100 to 500 nM. The result for `CCc1nn(CCOC(=O)c2nc(C)cs2)c2c1C(=O)NCC1(CCOCC1)C2` [Example 14, 2-(3-ethyl-4-oxo-spiro[6,8-dihydro-5H-pyrazolo[4,3-c]azepine-7,4′-tetrahydropyran]-1-yl)ethyl 4-methylthiazole-2-carboxylate] reads 100 to 500 nM; that for `CCc1noc(C)c1C(=O)OCCCn1nc(CC)c2c1CC1(CCOCC1)CNC2=O` [Example 92, 3-(3-ethyl-4-oxo-spiro[6,8-dihydro-5H-pyrazolo[4,3-c]azepine-7,4′-tetrahydropyran]-1-yl)propyl 3-ethyl-5-methyl-isoxazole-4-carboxylate], greater than 500 nM.

For the compound `CCc1nn(CCCOC(=O)c2sc(C)nc2C)c2c1C(=O)NCC1(CCOCC1)C2` [Example 95, 3-(3-ethyl-4-oxo-spiro[6,8-dihydro-5H-pyrazolo[4,3-c]azepine-7,4′-tetrahydropyran]-1-yl)propyl 2,4-dimethylthiazole-5-carboxylate], the IC50 is 100 to 500 nM. With `CCc1nn(CCOC(=O)Cc2cc(C)no2)c2c1C(=O)NCC1(CCOCC1)C2` [Example 12, 2-(3-ethyl-4-oxo-spiro[6,8-dihydro-5H-pyrazolo[4,3-c]azepine-7,4′-tetrahydropyran]-1-yl)ethyl 2-(3-methylisoxazol-5-yl)acetate] the figure was greater than 500 nM; with `CCc1nn(CCCOC(=O)C2CCSC2)c2c1C(=O)NCC1(CCOCC1)C2` (centres unmarked) [Example 60, 3-(3-ethyl-4-oxo-spiro[6,8-dihydro-5H-pyrazolo[4,3-c]azepine-7,4′-tetrahydropyran]-1-yl)propyl tetrahydrothiophene-3-carboxylate], 100 to 500 nM; with `CCc1nn(CCCOC(=O)c2ccnnc2C)c2c1C(=O)NCC1(CCOCC1)C2` [Example 67, 3-(3-ethyl-4-oxo-spiro[6,8-dihydro-5H-pyrazolo[4,3-c]azepine-7,4′-tetrahydropyran]-1-yl)propyl 3-methylpyridazine-4-carboxylate], greater than 500 nM. With `CCc1nn(CCCOC(=O)c2ncsc2C)c2c1C(=O)NCC1(CCOCC1)C2` [Example 80, 3-(3-ethyl-4-oxo-spiro[6,8-dihydro-5H-pyrazolo[4,3-c]azepine-7,4′-tetrahydropyran]-1-yl)propyl 5-methylthiazole-4-carboxylate] the figure was 100 to 500 nM.

Turning to `CCc1nn(CCCOC(=O)c2ccnnc2)c2c1C(=O)NCC1(CCOCC1)C2` [Example 30, 3-(3-ethyl-4-oxo-spiro[6,8-dihydro-5H-pyrazolo[4,3-c]azepine-7,4′-tetrahydropyran]-1-yl)propyl pyridazine-4-carboxylate], the IC50 was greater than 500 nM. The result for `CCc1nn(CCCOC(=O)c2nccn2C)c2c1C(=O)NCC1(CCOCC1)C2` [Example 40, 3-(3-ethyl-4-oxo-spiro[6,8-dihydro-5H-pyrazolo[4,3-c]azepine-7,4′-tetrahydropyran]-1-yl)propyl 1-methylimidazole-2-carboxylate] reads 100 to 500 nM; that for `CCc1nn(CCCOC(=O)c2cccc(C)n2)c2c1C(=O)NCC1(CCOCC1)C2` [Example 64, 3-(3-ethyl-4-oxo-spiro[6,8-dihydro-5H-pyrazolo[4,3-c]azepine-7,4′-tetrahydropyran]-1-yl)propyl 6-methylpyridine-2-carboxylate], greater than 500 nM; that for `CCc1nn(CCCOC(=O)C2CCN(C(=O)OC)CC2)c2c1C(=O)NCC1(CCOCC1)C2` [Example 105, O4-[3-(3-ethyl-4-oxo-spiro[6,8-dihydro-5H-pyrazolo[4,3-c]azepine-7,4′-tetrahydropyran]-1-yl)propyl] O1-methyl piperidine-1,4-dicarboxylate], 100 to 500 nM. With `CCc1nn(CCCOC(=O)c2cnc(C)n2C)c2c1C(=O)NCC1(CCOCC1)C2` [Example 73, 3-(3-ethyl-4-oxo-spiro[6,8-dihydro-5H-pyrazolo[4,3-c]azepine-7,4′-tetrahydropyran]-1-yl)propyl 2,3-dimethylimidazole-4-carboxylate] the figure was 100 to 500 nM. As to `CCc1nn(CCOC(=O)C2CCOCC2)c2c1C(=O)NCC1(CCOCC1)C2` [Example 8, 2-(3-ethyl-4-oxo-spiro[6,8-dihydro-5H-pyrazolo[4,3-c]azepine-7,4′-tetrahydropyran]-1-yl)ethyl tetrahydropyran-4-carboxylate], the IC50 was greater than 500 nM.

As to `CCc1nn(CCOC(=O)c2cnc(C)o2)c2c1C(=O)NCC1(CCOCC1)C2` [Example 6, 2-(3-ethyl-4-oxo-spiro[6,8-dihydro-5H-pyrazolo[4,3-c]azepine-7,4′-tetrahydropyran]-1-yl)ethyl 2-methyloxazole-5-carboxylate], the IC50 was greater than 500 nM. The result for `CCc1nn(CCCOC(=O)C2CCOCC2)c2c1C(=O)NCC1(CCOCC1)C2` [Example 59, 3-(3-ethyl-4-oxo-spiro[6,8-dihydro-5H-pyrazolo[4,3-c]azepine-7,4′-tetrahydropyran]-1-yl)propyl tetrahydropyran-4-carboxylate] reads greater than 500 nM; that for `CCc1nn(CCCOC(=O)c2cn(C)cn2)c2c1C(=O)NCC1(CCOCC1)C2` [Example 39, 3-(3-ethyl-4-oxo-spiro[6,8-dihydro-5H-pyrazolo[4,3-c]azepine-7,4′-tetrahydropyran]-1-yl)propyl 1-methylimidazole-4-carboxylate], greater than 500 nM. Regarding `CCc1nn(CCCOC(=O)c2cc(C)nnc2C)c2c1C(=O)NCC1(CCOCC1)C2` [Example 88, 3-(3-ethyl-4-oxo-spiro[6,8-dihydro-5H-pyrazolo[4,3-c]azepine-7,4′-tetrahydropyran]-1-yl)propyl 3,6-dimethylpyridazine-4-carboxylate], the IC50 is greater than 500 nM. On to `CCc1nn(CCOC(=O)c2cnn(C)c2)c2c1C(=O)NCC1(CCOCC1)C2` [Example 3, 2-(3-ethyl-4-oxo-spiro[6,8-dihydro-5H-pyrazolo[4,3-c]azepine-7,4′-tetrahydropyran]-1-yl)ethyl 1-methylpyrazole-4-carboxylate], for which the IC50 is greater than 500 nM.

Consider `CCc1nn(CCCOC(=O)c2ccnc(C)n2)c2c1C(=O)NCC1(CCOCC1)C2` [Example 68, 3-(3-ethyl-4-oxo-spiro[6,8-dihydro-5H-pyrazolo[4,3-c]azepine-7,4′-tetrahydropyran]-1-yl)propyl 2-methylpyrimidine-4-carboxylate], for which the IC50 is greater than 500 nM. `CCc1nn(CCCOC(=O)c2ocnc2C)c2c1C(=O)NCC1(CCOCC1)C2` [Example 47, 3-(3-ethyl-4-oxo-spiro[6,8-dihydro-5H-pyrazolo[4,3-c]azepine-7,4′-tetrahydropyran]-1-yl)propyl 4-methyloxazole-5-carboxylate]: the IC50 lay within 100 to 500 nM. For `CCc1nn(CCCOC(=O)c2cocn2)c2c1C(=O)NCC1(CCOCC1)C2` [Example 23, 3-(3-ethyl-4-oxo-spiro[6,8-dihydro-5H-pyrazolo[4,3-c]azepine-7,4′-tetrahydropyran]-1-yl)propyl oxazole-4-carboxylate], the IC50 is greater than 500 nM. As to `CCc1nn(CCCOC(=O)c2cc(C)n[nH]2)c2c1C(=O)NCC1(CCOCC1)C2` [Example 33, 3-(3-ethyl-4-oxo-spiro[6,8-dihydro-5H-pyrazolo[4,3-c]azepine-7,4′-tetrahydropyran]-1-yl)propyl 5-methyl-1H-pyrazole-3-carboxylate], the IC50 lay in the range of 100 to 500 nM. The result for `CCc1nn(CCCOC(=O)C2CCS(=O)(=O)CC2)c2c1C(=O)NCC1(CCOCC1)C2` [Example 103, 3-(3-ethyl-4-oxo-spiro[6,8-dihydro-5H-pyrazolo[4,3-c]azepine-7,4′-tetrahydropyran]-1-yl)propyl 1,1-dioxothiane-4-carboxylate] reads greater than 500 nM; that for `CCc1nn(CC(C)(C)COC(=O)C2CCOCC2)c2c1C(=O)NCC1(CCOCC1)C2` [Example 111, [3-(3-ethyl-4-oxo-spiro[6,8-dihydro-5H-pyrazolo[4,3-c]azepine-7,4′-tetrahydropyran]-1-yl)-2,2-dimethyl-propyl] tetrahydropyran-4-carboxylate], 100 to 500 nM; that for `CCc1nn(CCCOC(=O)c2c[nH]cn2)c2c1C(=O)NCC1(CCOCC1)C2` [Example 17, 3-(3-ethyl-4-oxo-spiro[6,8-dihydro-5H-pyrazolo[4,3-c]azepine-7,4′-tetrahydropyran]-1-yl)propyl 1H-imidazole-4-carboxylate], greater than 500 nM. With `CCc1nn(CCCOC(=O)c2cnon2)c2c1C(=O)NCC1(CCOCC1)C2` [Example 27, 3-(3-ethyl-4-oxo-spiro[6,8-dihydro-5H-pyrazolo[4,3-c]azepine-7,4′-tetrahydropyran]-1-yl)propyl 1,2,5-oxadiazole-3-carboxylate] the figure was 100 to 500 nM; with `CCc1nn(CCCOC(=O)c2ncc[nH]2)c2c1C(=O)NCC1(CCOCC1)C2` [Example 19, 3-(3-ethyl-4-oxo-spiro[6,8-dihydro-5H-pyrazolo[4,3-c]azepine-7,4′-tetrahydropyran]-1-yl)propyl 1H-imidazole-2-carboxylate], greater than 500 nM; with `CCc1nn(CCCOC(=O)c2ccc3ncn(C)c3c2)c2c1C(=O)NCC1(CCOCC1)C2` [Example 101, 3-(3-ethyl-4-oxo-spiro[6,8-dihydro-5H-pyrazolo[4,3-c]azepine-7,4′-tetrahydropyran]-1-yl)propyl 3-methylbenzimidazole-5-carboxylate], less than 100 nM.
